# Test results from patent US10442788B2, “Hepatitis B antiviral agents” (ENANTA PHARMACEUTICALS, INC., priority 2015, dated 2019).
# Columns and labels:
# HBV = assay: HepAD38 antiviral assay: reduction of viral product accumulation (virion DNA by qPCR, HBsAg or HBeAg by ELISA); type: cell-based; conditions: Hepatitis B virus, 120 h; HepAD38 cells, five days after compound addition; 50% reduction of viral product accumulation relative to no drug controls; read-out: HepAD38 EC50
# How it was run: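 Tetracycline-washed HepAD38 cells treated with compound (DMSO diluted 1:200) for 5 days, or 8 days with media and compound refreshed on d2 and d5. Virion DNA from lysates quantified by qPCR; HBsAg or HBeAg by ELISA. EC50 is the concentration giving 50% reduction versus no-drug controls, reported as ranges A<1 μM, B 1-10 μM, C>10 μM.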
# [1] = Compound toxicity, ATPLite total ATP levels; type: cell-based; conditions: human, HepAD38 cells; 15,000 cells/well, three days after compound addition; 50% reduction of total ATP levels relative to no drug controls
# Method: Methods: HepAD38 cells are maintained as previously reported (Ladner et al, Antimicrob. Agents Chemother. 1997, […], 1715). Briefly, cells are passaged upon attaining confluency in DMEM/F12 media in the presence of 10% FBS, Penn/Strep, 250 μg/mL G418, and 1 ug/ml tetracycline. Novel compounds are screened by first washing cells three times with PBS to remove tetracycline, and plating in 96 well plates at 35,000 cells/well. Compounds dissolved in DMSO are then diluted 1:200 into wells containing cells. Five days after compound addition, material is harvested for analysis. For an extended 8 day analysis, cells are plated and treated as described above, but media and compound are refreshed on d2 and d5 post initial treatment.
# Compound toxicity is evaluated by seeding cells at 15,000 cells/well and treating with compound as described above. Three days after compound addition, cells are treated with ATPLite reagent and compound concentrations that reduce total ATP levels in wells by 50% relative to no drug controls (CC50) are reported; CC50 ranges are as follows: A>30 μM; B 10-30 μM; C<10 μM.
compound,measurement,setting,value
O=S(=O)(c1cc(-c2nc(-c3ccc(Br)c(F)c3)c[nH]2)ccc1Cl)N1CCCC1CO (stereo not shown) [Example 107],EC50,HBV,< 1 µM
same,CC50 at 3 days,[1],> 30 µM
CC(=O)OC1CCN(S(=O)(=O)c2cc(-c3nc(-c4ccc(F)c(Br)c4)c[nH]3)ccc2Cl)CC1 [Example 35],EC50,HBV,1 to 10 µM
same,CC50 at 3 days,[1],10 to 30 µM
CC(C)(C)OC(=O)NCCCNS(=O)(=O)c1cc(-c2nc(-c3ccc(Br)c(F)c3)c[nH]2)ccc1Cl [Example 138],EC50,HBV,< 1 µM
same,CC50 at 3 days,[1],> 30 µM
CC(C)OC(=O)[C@@H](C)NS(=O)(=O)c1cc(-c2ncc(-c3ccc(F)c(Br)c3)[nH]2)ccc1Cl [Example 41],EC50,HBV,1 to 10 µM
same,CC50 at 3 days,[1],> 30 µM
CN1CCN(S(=O)(=O)c2cc(-c3nc(-c4ccc(Br)c(F)c4)c[nH]3)ccc2Cl)CC1 [Example 144],EC50,HBV,< 1 µM
same,CC50 at 3 days,[1],> 30 µM
O=S(=O)(c1cc2nc(-c3cc(F)c(F)c(F)c3)[nH]c2cc1Cl)N1CCC(O)CC1 [Example 3],EC50,HBV,> 10 µM
same,CC50 at 3 days,[1],> 30 µM
O=S(=O)(c1cc(-c2nc(-c3cccc(C(F)(F)F)c3)c[nH]2)ccc1Cl)N1CCC(O)CC1 [Example 94],EC50,HBV,< 1 µM
same,CC50 at 3 days,[1],10 to 30 µM
CC(CO)N(C)S(=O)(=O)c1cc(-c2nc(-c3ccc(Br)c(F)c3)c[nH]2)ccc1Cl (stereo not shown) [Example 129],EC50,HBV,< 1 µM
same,CC50 at 3 days,[1],< 10 µM
O=C1CCN(S(=O)(=O)c2cc(-c3ncc(-c4ccc(F)c(Br)c4)[nH]3)ccc2Cl)CC1 [Example 31],EC50,HBV,1 to 10 µM
same,CC50 at 3 days,[1],10 to 30 µM
N#Cc1cc(-c2c[nH]c(-c3ccc(Cl)c(S(=O)(=O)N4CCC(O)CC4)c3)n2)ccc1Cl [Example 148],EC50,HBV,< 1 µM
same,CC50 at 3 days,[1],> 30 µM
O=S(=O)(c1cc(-c2ncc(-c3cccnc3)[nH]2)ccc1Cl)N1CCC(O)CC1 [Example 50],EC50,HBV,1 to 10 µM
same,CC50 at 3 days,[1],> 30 µM
O=S(=O)(c1cc(-c2nc(-c3cc(F)c(Br)c(F)c3)c[nH]2)ccc1Cl)N1CCC(O)CC1 [Example 131],EC50,HBV,< 1 µM
same,CC50 at 3 days,[1],> 30 µM
O=S(=O)(c1cc(-c2n[nH]c3ccccc23)ccc1Cl)N1CCC(O)CC1 [Example 6],EC50,HBV,> 10 µM
same,CC50 at 3 days,[1],> 30 µM
COC(=O)NCCCNS(=O)(=O)c1cc(-c2ncc(-c3ccc(F)c(Br)c3)[nH]2)ccc1Cl [Example 62],EC50,HBV,1 to 10 µM
same,CC50 at 3 days,[1],10 to 30 µM
N#Cc1cc(-c2cnc(-c3ccc(Cl)c(S(=O)(=O)N4CCC(O)CC4)c3)[nH]2)ccc1F [Example 22],EC50,HBV,< 1 µM
same,CC50 at 3 days,[1],> 30 µM
COC(=O)NCCCNS(=O)(=O)c1cc(-c2nc(-c3ccc(Br)c(F)c3)c[nH]2)ccc1Cl [Example 139],EC50,HBV,< 1 µM
same,CC50 at 3 days,[1],> 30 µM
O=S(=O)(c1cc(-c2nc(-c3ccc(Br)c(F)c3)c[nH]2)ccc1Cl)N1CCC(F)(F)CC1 [Example 124],EC50,HBV,< 1 µM
same,CC50 at 3 days,[1],< 10 µM
Cc1cc(-c2cc(-c3ccc(Cl)c(S(=O)(=O)N4CCC(O)CC4)c3)n[nH]2)ccc1F [Example 25],EC50,HBV,1 to 10 µM
same,CC50 at 3 days,[1],10 to 30 µM
COc1cc(-c2cnc(-c3ccc(Cl)c(S(=O)(=O)N4CCC(O)CC4)c3)[nH]2)ccc1F [Example 46],EC50,HBV,< 1 µM
same,CC50 at 3 days,[1],> 30 µM
O=S(=O)(c1cc(-c2nc(-c3ccc(Br)c(F)c3)c[nH]2)ccc1Cl)N1CCC(O)CC1 [Example 18],EC50,HBV,< 1 µM
same,CC50 at 3 days,[1],10 to 30 µM
